Results taken from US20140163099A1, “ANTIMICROBIAL COMPOSITION” (TAKASAGO INTERNATIONAL CORPORATION, priority 2011, published 2014).

Assays:
Format in all cases: cell-based
[1] = system: Prevotella nigrescens (JCM6322); assay: Growth inhibition activity (MIC, agar) against anaerobic bacteria; conditions: strain JCM6322; Trypticase Soy Broth agar, 37 degrees C. for 3 days
Description: (§1) In the present invention, the growth inhibition activity, which is an indicator of the antimicrobial activity, is evaluated by determining the Minimum Inhibitory Concentration (MIC) with an agar or liquid medium.
(§2) In the test for growth inhibition activity, the following strains were used: • Acne bacteria: Propionibacterium acnes (JCM6473) and (ATCC6919) • Abscess bacteria: Bacteroides fragilis (GAI5560) • Cavity-causing bacteria: Streptococcus mutans (JCM5175), Actinomyces naeslundii (JCM8350) and Actinomyces viscosus (JCM8352) • Periodontal pathogen: Fusobacterium nucleatum (JCM6328), Porphyromonas gingivalis (JCM8525), Prevotella nigrescens (JCM6322)
(§3) The test strains were cultured in a GAM medium (Nissui Pharmaceutical Co., LTD), a Schaedler Broth (BBL) or a Trypticase Soy Broth (BBL) liquid medium, and then the grown bacteria were diluted in saline to prepare turbidity 0.5 McFarland of the bacteria fluids for inoculation. The bacteria were cultured at 37 degrees C. for 3 days under an anaerobic condition by using AnaeroPack® from MGC.
(§4) Furthermore, in order to examine the growth inhibition activities against the bacteria by the above cooling agent, the concentration of the cooling agents: (3S)-CA20, (3R)-CA20, CA1, CA5, CA15, CA55 or CA MGH was diluted with ethanol to the required level of concentrations for the determining the Minimum Inhibitory Concentration to produce the sample liquids.
(§5) Next, 100 μL of each sample liquid was added to 10 mL of a Trypticase Soy Broth agar medium solution in a soluble state, and each agar medium solution was poured into a petri dish and solidified, to prepare the test plates. Subsequently, 5 μL of above the bacteria fluids for inoculation were stamped on the test plates, and then the test plates were cultured at 37 degrees C. for 3 days.
(§6) The minimum concentration of the cooling agent in which the growth of bacteria could not be confirmed was considered as the MIC (Minimum Inhibitory Concentration).
as §6

[2] = system: Porphyromonas gingivalis (JCM8525); assay: as above; conditions: strain JCM8525; Trypticase Soy Broth agar, 37 degrees C. for 3 days
Description: as §1, §2, §3, §4, §5, §6, §6

[3] = system: Propionibacterium acnes (ATCC6919); assay: as above; conditions: strain ATCC6919; Trypticase Soy Broth agar, 37 degrees C. for 3 days
Description: as §1, §2, §3, §4, §5, §6, §6

[4] = system: Actinomyces viscosus (JCM8352); assay: as above; conditions: strain JCM8352; Trypticase Soy Broth agar, 37 degrees C. for 3 days
Description: as §1, §2, §3, §4, §5, §6, §6

[5] = system: Bacteroides fragilis (GAI5560); assay: as above; conditions: strain GAI5560; Trypticase Soy Broth agar, 37 degrees C. for 3 days
Description: as §1, §2, §3, §4, §5, §6, §6

[6] = system: Actinomyces naeslundii (JCM8350); assay: as above; conditions: strain JCM8350; Trypticase Soy Broth agar, 37 degrees C. for 3 days
Description: as §1, §2, §3, §4, §5, §6, §6

[7] = system: Propionibacterium acnes (JCM6473); assay: as above; conditions: strain JCM6473; Trypticase Soy Broth agar, 37 degrees C. for 3 days
Description: as §1, §2, §3, §4, §5, §6, §6

[8] = system: Streptococcus mutans (JCM5175); assay: as above; conditions: strain JCM5175; Trypticase Soy Broth agar, 37 degrees C. for 3 days
Description: as §1, §2, §3, §4, §5, §6, §6

[9] = system: Escherichia coli (NBRC3972); assay: Growth inhibition activity (MIC, agar) against aerobic bacteria; conditions: strain NBRC3972; Mueller Hinton Agar, 37 degrees C. overnight
Description: as §1
(§7) Furthermore, the following bacteria were also used as other general aerobic bacteria: • Escherichia coli: Escherichia coli (NBRC3972) • Pseudomonas aeruginosa: Pseudomonas aeruginosa (NBRC13275) • Bacteria in intestines: Proteus vulgaris (NBRC3167) • Pneumobacillus: Klebsiella pneumoniae (NBRC13277) • Bacillus subtilis: Bacillus subtilis (NBRC3134)
(§8) The test strains were cultured in the liquid medium which the Bioresource center recommends, and then the test strains were subcultured to a Mueller Hinton Broth (Difco) at 30 degrees C. The grown bacteria were diluted to 10^6 CFU/ml with saline to adjust the bacteria fluids for inoculation.
as §4, with “agents,” for “agent,”, “concentration” for “concentrations”
(§9) Next, 100 μL of each sample liquid was added to 10 mL of a Mueller Hinton Agar (Difco) agar medium solution in a soluble state, and each agar medium solution was poured into a petri dish and solidified to prepare test plates having several concentrations of the sample liquids (several concentrations of the above cooling agents). Subsequently, 5 μL of the above bacteria fluids for inoculation were stamped on the test plates, and then the test plates were cultured at 37 degrees C. overnight.
(§10) In this way, the growth inhibition activities by (3S)-CA20, (3R)-CA20, CA1, CA5, CA15, CA55, CA MGH were examined. The minimum concentration of the cooling agent in which the growth of bacteria could not be confirmed was considered as the MIC (Minimum Inhibitory Concentration).
(§11) The minimum concentration of the cooling agent in which the grown strain could not be confirmed was considered as the MIC (Minimum Inhibitory Concentration).

[10] = system: Pseudomonas aeruginosa (NBRC13275); assay: as above; conditions: strain NBRC13275; Mueller Hinton Agar, 37 degrees C. overnight
Description: as §1, §7, §8
as §4, with “agents,” for “agent,”, “concentration” for “concentrations”
as §9, §10, §11

[11] = system: Klebsiella pneumoniae (NBRC13277); assay: as above; conditions: strain NBRC13277; Mueller Hinton Agar, 37 degrees C. overnight
Description: as §1, §7, §8
as §4, with “agents,” for “agent,”, “concentration” for “concentrations”
as §9, §10, §11

[12] = system: Proteus vulgaris (NBRC3167); assay: as above; conditions: strain NBRC3167; Mueller Hinton Agar, 37 degrees C. overnight
Description: as §1, §7, §8
as §4, with “agents,” for “agent,”, “concentration” for “concentrations”
as §9, §10, §11

[13] = system: Bacillus subtilis (NBRC3134); assay: as above; conditions: strain NBRC3134; Mueller Hinton Agar, 37 degrees C. overnight
Description: as §1, §7, §8
as §4, with “agents,” for “agent,”, “concentration” for “concentrations”
as §9, §10, §11

[14] = system: Staphylococcus aureus (JCM2151); assay: as above; conditions: strain JCM2151; Mueller Hinton Agar, 37 degrees C. overnight
Description: as §1
(§12) In the test for the growth inhibition activity, the following strains were used as skin-related bacteria: • Staphylococcus epidermidis: Staphylococcus epidermidis (JCM2414T and ATCC 12228) • Staphylococcus aureus: Staphylococcus aureus (NBRC12732 and JCM2151) • Skin indigenous bacteria which introduce a superficial infection: Corynebacterium minutissimum (NBRC15361T) • Armpit odor-causing bacteria: Corynebacterium xerosis (JCM1324)
as §8
as §4, with “agents,” for “agent,”, “concentration” for “concentrations”
as §9, §10, §11

[15] = system: Staphylococcus aureus (NBRC12732); assay: as above; conditions: strain NBRC12732; Mueller Hinton Agar, 37 degrees C. overnight
Description: as §1, §12, §8
as §4, with “agents,” for “agent,”, “concentration” for “concentrations”
as §9, §10, §11

[16] = system: Staphylococcus epidermidis (JCM2414T); assay: as above; conditions: strain JCM2414T; Mueller Hinton Agar, 37 degrees C. overnight
Description: as §1, §12, §8
as §4, with “agents,” for “agent,”, “concentration” for “concentrations”
as §9, §10, §11

[17] = system: Corynebacterium xerosis (JCM1324); assay: as above; conditions: strain JCM1324; Mueller Hinton Agar, 37 degrees C. overnight
Description: as §1, §12, §8
as §4, with “agents,” for “agent,”, “concentration” for “concentrations”
as §9, §10, §11

[18] = system: Corynebacterium minutissimum (NBRC15361T); assay: as above; conditions: strain NBRC15361T; Mueller Hinton Agar, 37 degrees C. overnight
Description: as §1, §12, §8
as §4, with “agents,” for “agent,”, “concentration” for “concentrations”
as §9, §10, §11

Molecule	MIC (Minimum Inhibitory Concentration) [1]	MIC (Minimum Inhibitory Concentration) [2]	MIC (Minimum Inhibitory Concentration) [3]	MIC (Minimum Inhibitory Concentration) [4]	MIC (Minimum Inhibitory Concentration) [5]	MIC (Minimum Inhibitory Concentration) [6]	MIC (Minimum Inhibitory Concentration) [7]	MIC (Minimum Inhibitory Concentration) [8]	MIC (Minimum Inhibitory Concentration) [9]	MIC (Minimum Inhibitory Concentration) [10]	MIC (Minimum Inhibitory Concentration) [11]	MIC (Minimum Inhibitory Concentration) [12]	MIC (Minimum Inhibitory Concentration) [13]	MIC (Minimum Inhibitory Concentration) [14]	MIC (Minimum Inhibitory Concentration) [15]	MIC (Minimum Inhibitory Concentration) [16]	MIC (Minimum Inhibitory Concentration) [17]	MIC (Minimum Inhibitory Concentration) [18]
CC(O)CC(=O)OC1CC(C)CCC1C(C)C [(3R)-CA20, menthyl 3-hydroxybutanoate]	200 ppm	100 ppm	400 ppm	100 ppm	100 ppm	200 ppm	200 ppm	200 ppm	>1600 ppm	>1600 ppm	200 ppm	>1600 ppm	200 ppm	100 ppm	200 ppm	200 ppm	100 ppm	200 ppm
N-alkyl-p-menthane-3-carboxamide [WS-3, reference compound]	>1600 ppm	200 ppm	>1600 ppm	>1600 ppm	>1600 ppm	>1600 ppm	>1600 ppm	>1600 ppm	>1600 ppm	>1600 ppm	>1600 ppm	>1600 ppm	>1600 ppm	>1600 ppm	>1600 ppm	>1600 ppm	>1600 ppm	>1600 ppm
